The numbers were not newly measured in US20220235393A1, “SURROGATE VIRUS ASSAYS AND METHODS” (priority 2019, published 2022), which cites them from elsewhere.

Structures are written as SMILES.

This series relates to ASFV.

In the case of `O=C(O)CC(O)(CC(=O)O)C(=O)O` [citric acid], the “inactivation of virus applied to wood surfaces” value is recorded as “completely inactivated”.
